# Like-named read-outs stand apart in the source and are kept apart here.
# Experiments:
# HT29 xenograft = experiment: HT-29 xenograft mouse model with CDDP (Example 52); format: in vivo; conditions: for % Inhibition vs Group 1 / % Inhibition vs Group 2: tumor volumes at day 25; for % Inhibition vs Group 1: vs vehicle group, regimen per table
# Description: Female CB17/SCID mice (purchased from Charles River, Cambridge, Mass.), 7-8 weeks of age, were allowed to acclimatize for at least three days, and handled under pathogen-free conditions. Human colon carcinoma cell line HT29 was obtained from the American Type Culture Collection. The cell lines were cultured and harvested as described in Example 47 and inoculated at 3×10^6 cells/animal in the peritoneal subcutaneous space. When the tumors grew to an average volume of 100 mm^3 (day 8), each group of mice (ten per group) was administered, for three weeks, as tabulated in the table below: Compound 25 in saline, administration route—i.p., administrated 2 h before CDDP on the days the combination therapy is scheduled and CDDP (in saline, IV).
# The body weight and tumor volume were determined as described in Example 47. Data are based on tumor volumes at day 25 when tumors in the vehicle group had reached sufficient size to require that the mice be sacrificed.
# H460 xenograft = H460 xenograft in nude mice, ip bolus or ip infusion with Cisplatin (Example 54); format: in vivo, mouse; conditions: alone or in combination with CDDP
# Description: Example 54 describes efficacy of Compound 25 via an ip bolus injection or ip infusion alone or in combination with Cisplatin in the H460 xenograft mouse model. Female Nu-Foxn1^nu homozygous nu/nu mice (purchased from Charles River, Cambridge, Mass.), 6 weeks of age, were allowed to acclimatize for at least three days, and handled under pathogen-free conditions. Human H460 cells were obtained from the American Type Culture Collection. The cell lines were cultured and harvested as described in Example 47 and inoculated at 3×10^6 cells/animal in the peritoneal subcutaneous space. When the tumors grew to an average volume of 100 mm^3 (day 8), each group of mice (ten per group) was administered, for three weeks, as tabulated in the table below: Compound 25 (formulated as a 15 mg/ml saline solution, administration route—i.p., administrated 2 h before CDDP on the days the combination therapy is scheduled) and CDDP in saline, IV.
# The body weight and tumor volume was determined as described in Example 47.
# [1] = target: CYP2C19 (printed CYPC219) (Homo sapiens, UniProt P33261); experiment: Cytochrome P450 inhibition; conditions: pH 7.4, probe (S)-mephenyloin
# Description: A control reaction with no inhibitor was also prepared. After a suitable incubation at 37° C., the reactions were terminated by the addition of […] of 10% formic acid in water ([…] of acetonitrile for 2C19). […] Each assay was performed in duplicate.
# H460 cells = experiment: Cell cycle distribution (flow cytometry); format: cell-based, human
# PC3 cells = experiment: Cell cycle distribution (flow cytometry); format: cell-based, human
# Description: Cells ([…], PC3 and HT29) were seeded at a density of 1.0×10^6 cells/3 ml medium per 60 mm dish. After 24 h attachment, cells were exposed to Compound 25 at the indicated concentrations for 2 h under either normoxia (air) or anoxia (nitrogen). Cells were washed twice, and incubated for an additional 22 h in fresh medium. Cells were trypsinized, centrifuged, and fixed in 75% ethanol at least for 24 h at −20° C. Cell cycle distribution was determined using Guava Cell Cycle reagent (Guava, Hayward, Calif.) by flow cytometry (Guava, Hayward, Calif.).
# [2] = Solubility in saline at room temperature; format: physicochemical; conditions: saline or isotonic
# AA8 = experiment: Clonogenic survival - DNA mutant repair cells; conditions: Cricetulus griseus
# HT29 monolayer = experiment: Clonogenic survival of monolayer cells (Example 35); format: cell-based; conditions: Homo sapiens
# in vivo = conditions: CD-1, mouse, 50 mg/kg
# [3] = Group 7, Compound 25 i.p. in combination with CDDP IV
# [4] = Group 8, Compound 25 i.p. in combination with CDDP IV
# [5] = Group 9, Compound 25 i.p. in combination with CDDP IV
# [6] = Group 10, Compound 25 i.p. in combination with CDDP IV
# Sequence of CYP2C19 (printed CYPC219) (P33261 whole entry): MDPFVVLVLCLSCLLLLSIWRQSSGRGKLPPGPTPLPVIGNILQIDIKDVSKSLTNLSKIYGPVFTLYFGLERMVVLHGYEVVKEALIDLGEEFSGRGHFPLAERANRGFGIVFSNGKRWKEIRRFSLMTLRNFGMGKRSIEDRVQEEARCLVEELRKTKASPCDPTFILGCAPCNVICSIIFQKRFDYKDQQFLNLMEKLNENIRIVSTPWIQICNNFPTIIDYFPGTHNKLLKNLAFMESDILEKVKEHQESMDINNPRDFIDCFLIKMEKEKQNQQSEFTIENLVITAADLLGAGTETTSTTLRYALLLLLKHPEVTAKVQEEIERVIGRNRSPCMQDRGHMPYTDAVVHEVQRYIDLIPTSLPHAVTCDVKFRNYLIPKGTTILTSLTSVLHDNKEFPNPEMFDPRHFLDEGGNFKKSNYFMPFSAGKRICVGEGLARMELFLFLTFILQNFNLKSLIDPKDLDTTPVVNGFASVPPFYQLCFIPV
structure (smiles),measurement,setting,value
Cn1c(COP(=O)(NCCBr)NCCBr)cnc1[N+](=O)[O-] [Compound 25],% Inhibition vs Group 1,"HT29 xenograft; Group 3, Compound 25 in saline i.p.",28.2%
same,% Inhibition vs Group 1,"HT29 xenograft; Group 4, Compound 25 in saline i.p.",30.1%
same,% Inhibition vs Group 1,"HT29 xenograft; Group 5, Compound 25 in saline i.p.",31.3%
same,% Inhibition vs Group 1,"HT29 xenograft; Group 6, Compound 25 in saline i.p.",48.1%
same,% Inhibition vs Group 2,HT29 xenograft; [3],30.8%
same,% Inhibition vs Group 1,HT29 xenograft; [3],50.7%
same,% Inhibition vs Group 2,HT29 xenograft; [4],27.5%
same,% Inhibition vs Group 1,HT29 xenograft; [4],44.2%
same,% Inhibition vs Group 2,HT29 xenograft; [5],21.5%
same,% Inhibition vs Group 1,HT29 xenograft; [5],36.2%
same,% Inhibition vs Group 2,HT29 xenograft; [6],33.2%
same,% Inhibition vs Group 1,HT29 xenograft; [6],51.8%
same,tumor growth,"HT29 xenograft; monotherapy 50 and 100 mg/kg/day, various regimens, saline",inhibition of tumor growth
same,body weight,"HT29 xenograft; more so in combination groups, recovered",modest body weight loss
same,efficacy of continuous application,H460 xenograft,efficacious
same,IC50,[1],> 50000 nM
same,Cell cycle G0/G1,"H460 cells; 0.005 μM, Air",38
same,Cell cycle G2/M,"H460 cells; 0.005 μM, Air",42
same,Cell cycle S,"H460 cells; 0.005 μM, Air",18
same,Cell cycle G0/G1,"H460 cells; 0.005 μM, Nitrogen",50
same,Cell cycle G2/M,"H460 cells; 0.005 μM, Nitrogen",38
same,Cell cycle S,"H460 cells; 0.005 μM, Nitrogen",12
same,Cell cycle G0/G1,"H460 cells; 0.05 μM, Air",58
same,Cell cycle G2/M,"H460 cells; 0.05 μM, Air",28
same,Cell cycle S,"H460 cells; 0.05 μM, Air",11
same,Cell cycle G0/G1,"H460 cells; 0.05 μM, Nitrogen",30
same,Cell cycle G2/M,"H460 cells; 0.05 μM, Nitrogen",59
same,Cell cycle S,"H460 cells; 0.05 μM, Nitrogen",7
same,Cell cycle G0/G1,"H460 cells; 0.5 μM, Air",58
same,Cell cycle G2/M,"H460 cells; 0.5 μM, Air",28
same,Cell cycle S,"H460 cells; 0.5 μM, Air",11
same,Cell cycle G0/G1,"H460 cells; 0.5 μM, Nitrogen",23
same,Cell cycle G2/M,"H460 cells; 0.5 μM, Nitrogen",40
same,Cell cycle S,"H460 cells; 0.5 μM, Nitrogen",31
same,Cell cycle G0/G1,"H460 cells; 5 μM, Air",42
same,Cell cycle G2/M,"H460 cells; 5 μM, Air",59
same,Cell cycle S,"H460 cells; 5 μM, Air",6
same,Cell cycle G0/G1,"H460 cells; 5 μM, Nitrogen",47
same,Cell cycle G2/M,"H460 cells; 5 μM, Nitrogen",17
same,Cell cycle S,"H460 cells; 5 μM, Nitrogen",15
same,Cell cycle G0/G1,"H460 cells; 50 μM, Air",14
same,Cell cycle G2/M,"H460 cells; 50 μM, Air",65
same,Cell cycle S,"H460 cells; 50 μM, Air",19
same,Cell cycle G0/G1,"H460 cells; 50 μM, Nitrogen",33
same,Cell cycle G2/M,"H460 cells; 50 μM, Nitrogen",11
same,Cell cycle S,"H460 cells; 50 μM, Nitrogen",14
same,Cell cycle G0/G1,"PC3 cells; 0.0005 μM, Air",55
same,Cell cycle G2/M,"PC3 cells; 0.0005 μM, Air",32
same,Cell cycle S,"PC3 cells; 0.0005 μM, Air",12
same,Cell cycle G0/G1,"PC3 cells; 0.0005 μM, Nitrogen",59
same,Cell cycle G2/M,"PC3 cells; 0.0005 μM, Nitrogen",31
same,Cell cycle S,"PC3 cells; 0.0005 μM, Nitrogen",10
same,Cell cycle G0/G1,"PC3 cells; 0.005 μM, Air",52
same,Cell cycle G2/M,"PC3 cells; 0.005 μM, Air",34
same,Cell cycle S,"PC3 cells; 0.005 μM, Air",13
same,Cell cycle G0/G1,"PC3 cells; 0.005 μM, Nitrogen",56
same,Cell cycle G2/M,"PC3 cells; 0.005 μM, Nitrogen",32
same,Cell cycle S,"PC3 cells; 0.005 μM, Nitrogen",11
same,Cell cycle G0/G1,"PC3 cells; 0.05 μM, Air",55
same,Cell cycle G2/M,"PC3 cells; 0.05 μM, Air",33
same,Cell cycle S,"PC3 cells; 0.05 μM, Air",12
same,Cell cycle G0/G1,"PC3 cells; 0.05 μM, Nitrogen",43
same,Cell cycle G2/M,"PC3 cells; 0.05 μM, Nitrogen",44
same,Cell cycle S,"PC3 cells; 0.05 μM, Nitrogen",12
same,Cell cycle G0/G1,"PC3 cells; 0.5 μM, Air",55
same,Cell cycle G2/M,"PC3 cells; 0.5 μM, Air",32
same,Cell cycle S,"PC3 cells; 0.5 μM, Air",13
same,Cell cycle G0/G1,"PC3 cells; 0.5 μM, Nitrogen",21
same,Cell cycle G2/M,"PC3 cells; 0.5 μM, Nitrogen",46
same,Cell cycle S,"PC3 cells; 0.5 μM, Nitrogen",33
same,Cell cycle G0/G1,"PC3 cells; 5 μM, Air",55
same,Cell cycle G2/M,"PC3 cells; 5 μM, Air",32
same,Cell cycle S,"PC3 cells; 5 μM, Air",12
same,Cell cycle G0/G1,"PC3 cells; 5 μM, Nitrogen",35
same,Cell cycle G2/M,"PC3 cells; 5 μM, Nitrogen",26
same,Cell cycle S,"PC3 cells; 5 μM, Nitrogen",38
same,solubility,[2],15 mg/mL
same,IC90,"AA8; CHO-AA8, read-out: IC90 AA8 Air",> 300000 nM
same,IC90,"AA8; CHO-AA8, read-out: IC90 AA8 N2",850 nM
same,IC90,"HT29 monolayer; HT-29, read-out: IC90 HT29 Monolayer 0.6% O2",3000 nM
same,IC90,"HT29 monolayer; HT-29, read-out: IC90 HT29 Monolayer Air",40000 nM
same,IC90,"HT29 monolayer; HT-29, read-out: IC90 HT29 Monolayer N2",200 nM
Cn1c(COP(=O)(NCCCl)NCCCl)cnc1[N+](=O)[O-] [Compound 36],AUC,in vivo; ip,1440 µg·h/mL
same,Cmax,in vivo; ip,44000 ng/mL
same,Tmax,in vivo; ip,15 min
same,half-life,in vivo; ip,11 min
same,AUC,in vivo; iv,646 µg·h/mL
same,Cmax,in vivo; iv,27700 ng/mL
same,Tmax,in vivo; iv,5 min
same,half-life,in vivo; iv,14.1 min

# Reference: patent US8507464B2, “Phosphoramidate alkylator prodrugs” (Threshold Pharmaceuticals, Inc., priority 2005, dated 2013)
